The values that follow come from patent publication US10576151B2, “Ciclopirox for use in modulation of glucose homeostasis” (UNIVERSITY OF SOUTH CAROLINA, priority 2015, dated 2020).

One assay deals with diabetic mice. To be noted: cited from earlier work.
The subject of the next assay is BiP, GRP94 and CHOP. Nature of the assay: Western blot of ER stress markers in islets in culture. It is filed as cell-based, mouse. The following applies: islets exposed to increasing amounts of iron citrate alone (FIG. 12A). The method, then:
(§1) Western Blotting. The mouse islets were treated with CPX 20 μM for 24 h and lysed in RIPA buffer [50 mM Tris, pH 7.2; 150 mM NaCl; 1% sodium deoxycholate; 0.1% SDS; 1% Triton-X 100; 10 mM NaF; 1 mM Na3VO4; protease inhibitor cocktail (1:1000, Sigma, St. Louis, Mo.)] and were subjected to immunoblot analysis by standard methods. Proteins were resolved on a 10% SDS-PAGE and transferred to a nitrocellulose membrane (Bio-Rad, Hercules, Calif.). Membranes were probed overnight with GADD153 (F-168), sc-575 from Santa Cruz Biotechnology (1:50); p21 (F-5), sc-6246 from Santa Cruz Biotechnology (1:200); actin, clone C4 MAB1501 from Millipore (Billerica, Mass., USA) (1:2000); BiP antibody (cat. no. 3183) from Cell Signaling (Danvers, Mass., USA) (1:1000); GRP94 antibody (H-212), sc-11402 from Santa Cruz Biotechnology (1:500); insulin rabbit polyclonal H-86, sc-9168 from Santa Cruz Biotechnology (1:500) antibodies followed by incubation with horseradish peroxidase-conjugated (HRP) anti-mouse (1:10000), goat anti-rabbit IgG (1:10000, Santa Cruz biotechnology Inc., Santa Cruz, Calif., USA) for 1 hr. After incubation with enhanced chemiluminescence reagents (Santa Cruz biotechnology Inc.), membranes were analyzed using an Image J software for Windows.
(§2) In order to understand better how CPX operates in β cells, it was tested to determine if it affected the efficiency by which insulin is produced following glucose stimulation. […] In view of the antidiabetic activity of CPX in vivo, the inhibition of insulin release appears contradictory. […]
(§3) While modulation of insulin release by CPX constitutes a challenging mechanism by which CPX may affect ER stress, how CPX regulates insulin expression remains obscure. […] To test this hypothesis, islets were exposed to iron citrate, alone or combined with CPX, and the levels were recorded of chaperones BiP, GRP94 and CHOP, as well as of insulin.

The next assay relates to insulin. Nature of the assay: Western blot of insulin levels in islets in culture. To be noted: islets exposed to increasing amounts of iron citrate alone (FIG. 12A). The assay is classed as cell-based, mouse. The method, then: as §1, §2, §3

`COc1ccc(C2=N[C@@H](c3ccc(Cl)cc3)[C@@H](c3ccc(Cl)cc3)N2C(=O)N2CCNC(=O)C2)c(OC(C)C)c1` [nutlin-3a]: in the assay with diabetic mice (mice, stimulation of p53/p21 activity), the effect on diabetes entry is recorded as “beneficial for diabetes in mice”. For the same compound, in the assay on diabetic mice (p21-deficient diabetic mice), the “response of diabetes to treatment” value is listed as “unresponsive to nutlin-3a”.
With iron citrate, in the assay on BiP, GRP94 and CHOP, the “ER stress-markers BiP, GRP94 and CHOP” value was “induced ER stress-markers BiP, GRP94 and CHOP”. Further, the insulin production result in the assay on insulin is reported as “triggered insulin production”.
